Assay results taken from ChEMBL document CHEMBL4725331, “An investigative study of antitumor properties of a novel thiazolo[4,5-d]pyrimidine small molecule revealing superior antitumor activity with CDK1 selectivity and potent pro-apoptotic properties” (Bioorg Med Chem, 2020).

Columns and labels:
HOP-92 = assay: Antiproliferative activity against human HOP-92 cells assessed as inhibition of cell growth measured after 48 hrs by SRB assay; type: functional
IGROV-1 = assay: Antiproliferative activity against human IGROV-1 cells assessed as inhibition of cell growth measured after 48 hrs by SRB assay; type: functional
HCT-116 = assay: Cytotoxicity against human HCT-116 cells assessed as reduction in cell viability after 48 hrs by MTT assay; type: functional, cell-based; details: HCT-116, 48 h
WI-38 = assay: Cytotoxicity against human WI-38 cells assessed as reduction in cell viability after 48 hrs by MTT assay; type: cell-based; details: WI-38, 48 h

SMILES	GI50 (HOP-92)	GI50 (IGROV-1)	IC50 (HCT-116)	IC50 (WI-38)
COc1ccc(-n2c(=S)sc3c(=O)[nH]c(C)nc32)c(OC)c1	< 0.01 µM	0.18 µM		
CC[C@H](CO)Nc1nc(NCc2ccccc2)c2ncn(C(C)C)c2n1 [SELICICLIB]			15.5 µM	24.1 µM
